Measured values as given in US5776919A, “Potentiators of antimicrobial activity” (priority 1996, dated 1998).
Values after ≈ are worked out from the molar mass of the structure shown. Values joined by “and” are separate entries in the source; they are usually repeats but may differ in a detail not shown here. Equal entries are not always repeated. Where two headings read alike, the source gives them in different places.

Key:
Assay type in all cases: cell-based
[1] = test system: methicillin-resistant Staphylococcus aureus (ATCC 33591); test: MIC determination by broth dilution
Experimental: (§1) The MICs were determined by the broth dilution method. […] The assays were performed in duplicate.

[2] = test system: Candida albicans (ATCC 10231); test: MIC determination by broth dilution
Experimental: as §1

[3] = test system: Escherichia coli (ATCC 10536); test: MIC determination by broth dilution
Experimental: as §1

[4] = test system: Pseudomonas aeruginosa (ATCC 10145); test: MIC determination by broth dilution
Experimental: as §1

[5] = test system: Candida albicans (ATCC 10231); test: MBC determination
Experimental: (§2) After 24 hours of incubation, the colonies were counted.

[6] = test system: Escherichia coli (ATCC 10536); test: MBC determination
Experimental: as §2

[7] = test system: Pseudomonas aeruginosa (ATCC 10145); test: MBC determination
Experimental: as §2

[8] = test system: methicillin-resistant Staphylococcus aureus (ATCC 33591); test: MBC determination
Experimental: as §2

[9] = Staphylococcus aureus, ATCC 33591 / MRSA, 48 h, compound alone, MRSA ATCC 33591, 2 days at 37° C., read-out: MIC
[10] = compound alone, MRSA ATCC 33591, 2 days at 37° C.
[11] = compound alone, C. albicans ATCC 10231, 2 days at 37° C.
[12] = compound alone, E. coli ATCC 10536, 2 days at 37° C.
[13] = compound alone, P. aeruginosa (ATCC 10536 [sic]), 2 days at 37° C.
[14] = compound alone, C. albicans ATCC 10231
[15] = compound alone, E. coli ATCC 10536
[16] = compound alone, P. aeruginosa (ATCC 10536 [sic])
[17] = compound alone, MRSA ATCC 33591

Row | Molecule | MIC [1, 9] | MIC [1, 10] | MIC [3, 12] | MIC [4, 13] | MBC [6, 15] | MBC [7, 16] | also measured
1 | COc1cccc(OC)c1C(=O)N[C@@H]1C(=O)N2[C@@H]1SC(C)(C)[C@@H]2C(=O)O [Methicillin, methicillin, reference compound] | 800 µg/mL (≈ 2.1 mM) |  |  |  |  |  | 
2 | Anacardic Acid |  | 6.25 µg/mL |  |  |  |  | 
3 | CCCCCCCCCCCCCO [Tridecanol, n-tridecanol] | 50 µg/mL (≈ 0.25 mM) |  |  |  |  |  | 
4 | CCCCCCCCCCCO [Undecanol, n-undecanol] | 50 µg/mL (≈ 0.29 mM) |  |  |  |  |  | 
5 | c1ccc2[nH]ccc2c1 [Indole, indole] |  |  |  |  |  |  | MIC ([2]; Candida albicans, ATCC10231, 48 h): 400 µg/mL (≈ 3.41 mM); MIC ([3]; Escherichia coli, ATCC10536, 48 h): 800 µg/mL (≈ 6.83 mM); MIC ([4]; Pseudomonas aeruginosa, ATCC 10145 / ATCC 10536, 48 h): 400 µg/mL (≈ 3.41 mM); MIC ([1]; Staphylococcus aureus, ATCC 33591 / MRSA, 48 h): 800 µg/mL (≈ 6.83 mM); MBC ([5]; Candida albicans, ATCC10231): 800 µg/mL (≈ 6.83 mM); MBC ([6]; Escherichia coli, ATCC10536): 800 µg/mL (≈ 6.83 mM); MBC ([7]; Pseudomonas aeruginosa, ATCC 10145 / ATCC 10536): 800 µg/mL (≈ 6.83 mM); MBC ([8]; Staphylococcus aureus, ATCC 33591 / MRSA): 800 µg/mL (≈ 6.83 mM)
6 | polymyxin E [reference compound] |  |  | 3.13 µg/mL | 6.25 µg/mL | 6.25 µg/mL | 12.5 µg/mL | MIC [2, 11]: 1600 µg/mL; MBC [5, 14]: 1600 µg/mL
7 | CCC/C=C/C=O [2-Hexenal, t-2-hexenal] |  | 400 µg/mL (≈ 4.08 mM) | 200 µg/mL and 400 µg/mL | 200 µg/mL (≈ 2.04 mM) | 400 µg/mL (≈ 4.08 mM) | 400 µg/mL (≈ 4.08 mM) | MBC [8, 17]: 800 µg/mL (≈ 8.15 mM)
8 | CCCCCCCCCCCCO [Dodecanol, n-dodecanol] | 80 µg/mL (≈ 0.429 mM) |  |  |  |  |  | 
9 | C=CC/C=C\C/C=C\CCCCCCCc1cccc(O)c1C(=O)O [Anacardic Acid (15:3)] |  | 6.25 µg/mL (≈ 0.0182 mM) |  |  |  |  | 
10 | polymyxin B [reference compound] |  | 800 µg/mL | 3.13 µg/mL | 6.25 µg/mL | 3.13 µg/mL | 6.25 µg/mL | MIC [2, 11]: 800 µg/mL; MBC [5, 14]: 1600 µg/mL; MBC [8, 17]: 800 µg/mL
